Test results published in US5961482A, “Iontotherapeutic device and process and iontotherapeutic unit dose” (Rutgers, The State University Of New Jersey, priority 1996, dated 1999).
Several values for one entry are separate records, joined by “and”; a condition that tells them apart may be missing. Equal entries are not always repeated.

Legend:
[1] = In vitro skin permeation of vasopressin, Valia-Chien cell, H^3-vasopressin scintillation counting; type: in vitro ADME, hairless rat; conditions: for Enhancement factor: vs passive diffusion (1.32 ng/cm^2 /hr)
Protocol: (§1) An aqueous buffer solution of vasopressin (50 mcg/ml containing 1.7 mcCi/ml H^3 -vasopressin) is prepared in citrate-phosphate buffer at pH 5.0. An aliquot of 3.5 ml of this vasopressin solution is filled into the refillable dosage unit having a microporous membrane as the drug-releasingsurface. The dosage unit is then assembled as a part of the pharmaceutical reservoir electrode of the iontotherapeutic device and membrane surface thereof is applied to the stratum corneum side of hairless rat skin mounted in the Valia-Chien skin permeation cell at 37° C. Samples are withdrawn at regular intervals and radioactivity is measured by scintillation counter to determine the amount of vasopressin which has been transdermally absorbed.
as §1, with “aqueous buffered” for “aqueous buffer”, “pH 7.4 with varying ionic strengths.” for “pH 5.0.”, “the drug-releasing surface.” for “the drug-releasingsurface.”, “regular time” for “regular”
as §1, with “aqueous buffered” for “aqueous buffer”, “pH 5.0 at ionic strength of 0.064.” for “pH 5.0.”, “the drug-releasing surface.” for “the drug-releasingsurface.”, “regular time” for “regular”

[2] = system: urine osmolarity in anesthetized rabbits; assay: Urine osmolarity / urine output in anesthetized rabbits; type: in vivo
Protocol: An aqueous buffer solution of vasopressin (40 IU/ml) is prepared in citrate-phosphate buffer at pH 5.0. Vasopressin is an anti-diuretic pharmaceutical, which is used by patients which have an excessive urine output. Vasopressin caused a reduction of urine output and an increase in ion content, such as sodium ion content. Ion content in the urine is determined by using osmolarity measurement. An aliquot of 3.5 ml of this vasopressin solution is filled into the refillable dosage unit having a microporous membrane as the drug-releasing surface. The dosage unit is then assembled as a part of the pharmaceutical reservoir electrode of the iontotherapeutic device and membrane surface thereof is applied to the abdominal skin of 2 groups of anesthetized rabbits. Blood samples are withdrawn and urine samples are collected at regular time intervals and urine osmolarity is measured by osmometer. The increases in osmolarity from the basal level are the pharmacodynamic responses to the vasopressin transdermally absorbed.

[3] = In vitro skin permeation of vasopressin, Valia-Chien cell, H^3-vasopressin scintillation counting; type: in vitro ADME, hairless rat; conditions: pH 7.4
[4] = TPIS 0.3 mA, 16 KHz, on/off 1/1, 60 min, pH 5.0, ionic strength 0.064

## NC(=O)CC[C@@H]1NC(=O)[C@H](Cc2ccccc2)NC(=O)[C@H](Cc2ccc(O)cc2)NC(=O)[C@@H](N)CSSC[C@@H](C(=O)N2CCC[C@H]2C(=O)N[C@@H](CCCN=C(N)N)C(=O)NCC(N)=O)NC(=O)[C@H](CC(N)=O)NC1=O [Vasopressin, vasopressin]
[1]; NO TPIS, 0.0 mA (passive diffusion), pH 5.0, X ± SD
  Skin Permeation Rate: 0.94±0.62 ng/cm^2 hr and 0.94 (±0.62) ng/cm^2 hr
[1]; NO TPIS, 0.0 mA, pH 5.0, X ± SD
  Skin Permeation Lag Time: 9.12 (±1.06) hours
[1]; TPIS 0.3 mA, 16 KHz, 60 min, pH 5.0, ionic strength 0.064
  time after TPIS treatment for skin permeability to return to the rate before treatment: less than 2 hours
[1]; [4]
  Skin Permeation Rate: 757.3 (±53.2) ng/cm^2 /hr
  duration of time lag: 0.40 (±0.06) hours
[1]; TPIS 0.5 mA, 2 KHz, on/off 1/1, pH 7.4, ionic strength 0.122, ± SD
  Skin Permeation Rate: 244.6 (±26.3) ng/cm^2 /hr
[1]; TPIS 0.5 mA, 2 KHz, on/off 1/1, pH 7.4, ionic strength 0.488, ± SD
  Skin Permeation Rate: 65.9 (±13.1) ng/cm^2 /hr
[1]; With TPIS, activation phase, 0.5 mA, 2 KHz, on/off 1/1, 10 min per 40 min, pH 5.0
  Skin Permeation Lag Time: < 0.5 h
[1]; With TPIS, activation phase, 0.5 mA, 2 KHz, on/off 1/1, 10 min per 40 min, pH 5.0, X ± SD
  Skin Permeation Rate: 116.2 (±10.7) ng/cm^2 hr
[1]; With TPIS, activation phase, 1.0 mA, 2 KHz, on/off 1/1, 10 min per 40 min, pH 5.0
  Skin Permeation Lag Time: < 0.5 h
[1]; With TPIS, activation phase, 1.0 mA, 2 KHz, on/off 1/1, 10 min per 40 min, pH 5.0, X ± SD
  Skin Permeation Rate: 178.0 (±25) ng/cm^2 hr
[1]; passive diffusion, pH 5.0, ionic strength 0.064
  duration of time lag: 9 h
[1]; passive diffusion, pH 5.0, ionic strength 0.064, 30 hours
  Skin Permeation Rate: 0.98±0.26 ng/cm^2 /hr
[1]; post-activation phase (0.0 mA) after 0.5 mA TPIS, pH 5.0, X ± SD
  Skin Permeation Rate: 0.7 (±0.4) ng/cm^2 hr
[1]; post-activation phase (0.0 mA) after 1.0 mA TPIS, pH 5.0, X ± SD
  Skin Permeation Rate: 5.3 (±0.5) ng/cm^2 hr
[1]; TPIS 0.5 mA, ionic strength 0.061
  Enhancement factor: 472.8 (±59.0)
[1]; TPIS 0.5 mA, ionic strength 0.122
  Enhancement factor: 185.3 (±19.9)
[1]; TPIS 0.5 mA, ionic strength 0.244
  Enhancement factor: 76.8 (±6.9)
[1]; TPIS 0.5 mA, ionic strength 0.488
  Enhancement factor: 49.9 (±18.0)
[2]; TPIS 0.22 mA/cm^2, 2 KHz, on/off 1/1, square, 40 min, 40 IU/ml pH 5.0
  urine osmolarity, TPIS vs TIDD: increases from the basal levels more rapidly and substantially
[2]; TPIS, vasopressin solution pH 5.0
  urine output, TPIS vs TIDD: more effective in reducing urine output than TIDD
[3]; TPIS 0.5 mA, 2 KHz, on/off 1/1, ionic strength 0.061, ± SD
  Skin Permeation Rate: 632.6 (±65.0) ng/cm^2 /hr
[3]; TPIS 0.5 mA, 2 KHz, on/off 1/1, ionic strength 0.244, ± SD
  Skin Permeation Rate: 101.4 (±9.1) ng/cm^2 /hr
[3]; passive diffusion, 30 hours
  Skin Permeation Rate: 1.32±0.38 ng/cm^2 /hr
